“Also recorded” adds a separate entry of the source.
Key:
[1] = test system: L. amazonensis promastigotes; test: Antipromastigote test, L. amazonensis; type: cell-based, Leishmania amazonensis; conditions: for IC50: Leishmania amazonensis, 72 h, resazurin, Mean ± SEM, read-out: L. amazonensis Promastigote IC50
Protocol: New cultures of promastigotes were obtained from infected Balb/C mice. […] A stock solution of the compounds was prepared at 50 mM in dimethylsulfoxide (Sigma Aldrich). The maximum solvent concentration used in the assays was 0.4% in a final volume per well of 200 μL. The cultures were initiated with 1.0 × 10^6 cells/ml and maintained at 26 °C for 72 h. Inhibition of parasitic growth was determined by cell viability indicator, resazurin [23], with excitation λ = 560 nm and emission λ = 590 nm or the number of parasites was then counted in a Neubauer chamber (experiments with L. braziliensis).

[2] = test system: promastigotes of L. infantum; test: Mitochondrial membrane potential (ΔΨm) test (rhodamine 123, flow cytometry); type: cell-based, Leishmania infantum; conditions: for Δѱm index of variation (IV): Rh123, IV = (MT − MC)/MC, mean ± SD; for effect on ΔΨm (in words): rhodamine 123, flow cytometry
Protocol: To determine the effect of pterocarpanquinones 2a-f on the ΔΨm, promastigotes of L. infantum (5 × 10^6 cells/mL) were incubated in the presence of 0–5 μM of derivatives at 26 °C. After 4 h, the parasites were incubated for 15 min with 10 μg/mL rhodamine 123 (Rh123) (Sigma-Aldrich). Data acquisition of 10,000 events and analysis were performed using the flow cytometer FACSCalibur (Becton-Dickinson, Rutherford, NJ, USA). Alteration in ΔΨm was quantified using an index of variation (IV) obtained by the eq. IV = (MT − MC)/MC [24], where MT is the median of the fluorescence of Rh123 for treated parasites and MC is the median of the fluorescence of the control parasites. Negative IV values correspond to depolarization of the mitochondrial membrane. The FCCP (Carbonyl cyanide-p-Trifluoromethoxyphenylhydrazone) 20 μM was used as positive control.

[3] = test system: intracellular amastigotes of L. amazonensis; test: Antiamastigote test, L. amazonensis in mouse peritoneal macrophages; type: cell-based, Leishmania amazonensis; conditions: for L. amazonensis SI (Selective Index): CC50 in Macrophages/IC50 in intracellular amastigotes; for IC50: Leishmania amazonensis, Peritoneal macrophage, intracellular amastigotes in mouse peritoneal macrophages, 72 h, infection index, Mean ± SEM, read-out: L. amazonensis Amastigote IC50
Protocol: (§1) For the test against intracellular amastigotes of L. amazonensis and L. infantum, resident peritoneal macrophages (swiss mouse) were plated in RPMI (Sigma-Aldrich) at 2 × 10^6/mL (0.4 mL/well) in Lab-Tek eight-chamber slides (Nunc, Roskilde, Denmark) and incubated at 37 °C in 5% CO2 for 1 h. Stationary-phase L. amazonensis and L. infantum promastigotes were added at respective parasite/macrophage ratios of 3:1 and 5:1 for 4 h. After washing three times, pterocarpanquinones 2a-f at various concentrations were added for 72 h. Next, the slides were stained using an Instant Prov hematological dye system (Newprov, Curitiba, Brazil). The number of amastigotes was determined by counting at least 100 macrophages per sample.
(§2) The results were expressed as an infection index (% infected cells×number of amastigotes/total number of macrophages). The 50% inhibitory concentration (IC50) was determined by nonlinear regression analysis in the software GraphPad Prism 5.

[4] = test system: intracellular amastigotes of L. braziliensis; test: Antiamastigote test, L. braziliensis in golden hamster macrophages; type: cell-based; conditions: for L. braziliensis SI (Selective Index): CC50 in Macrophages/IC50 in intracellular amastigotes; for IC50: Leishmania braziliensis, Peritoneal macrophage, intracellular amastigotes in golden hamster peritoneal macrophages, 72 h, infection index, Mean ± SEM, read-out: L. braziliensis Amastigote IC50
Protocol: Macrophages of golden hamsters were used in assays against intracellular amastigotes of L. braziliensis due to the natural resistance of mice. Resident macrophages were obtained from the peritoneal cells of golden hamsters after a peritoneal injection of 10 mL of Dulbecco’s Modified Eagle’s medium (DMEM) (Sigma-Aldrich). The peritoneal macrophages were plated onto glass coverslips placed within the wells of a 24-well culture plate and incubated at 37 °C in 5% CO2 for 1 h. After removing the nonadherent cells, the monolayers were infected with stationary-phase L. braziliensis promastigotes at a 5:1 parasite/macrophage ratio for 4 h. The infected macrophages were washed and incubated with several pterocarpanquinone concentrations (0-25 μM) for 72 h. The monolayers were then stained with Giemsa, and at least 100 infected macrophages per sample were counted under optical microscopy.
as §2

[5] = test system: L. braziliensis promastigotes; test: Antipromastigote test, L. braziliensis; type: cell-based; conditions: for IC50: Leishmania braziliensis, 72 h, parasites counted in Neubauer chamber, Mean ± SEM, read-out: L. braziliensis Promastigote IC50
Protocol: L. braziliensis (MCAN/BR/98/R619) was routinely isolated from hamster lesions and maintained as promastigotes in Schneider’s insect medium containing 20% HIFCS and 100 μg/ml gentamicin (Schering-Plough). New cultures of promastigotes were obtained from an infected hamster.
(§3) Leishmania promastigotes of three species were incubated in 96-well plates (Nunc, Roskilde, Denmark) under the conditions described above in either the absence or presence of different concentrations of pterocarpanquinones 2a-f (0-100 μM). A stock solution of the compounds was prepared at 50 mM in dimethylsulfoxide (Sigma Aldrich). The maximum solvent concentration used in the assays was 0.4% in a final volume per well of 200 μL. The cultures were initiated with 1.0 × 10^6 cells/ml and maintained at 26 °C for 72 h. Inhibition of parasitic growth was determined by cell viability indicator, resazurin [23], with excitation λ = 560 nm and emission λ = 590 nm or the number of parasites was then counted in a Neubauer chamber (experiments with L. braziliensis). The 50% inhibitory concentration (IC50) was determined by nonlinear regression analysis in the software GraphPad Prism 5.

[6] = test system: L. infantum promastigotes; test: Antipromastigote test, L. infantum; type: cell-based, Leishmania infantum; conditions: for IC50: Leishmania infantum, 72 h, resazurin, Mean ± SEM, read-out: L. infantum Promastigote IC50
Protocol: Leishmania infantum (MHOM/MA67ITMAP263) parasites were isolated from female BALB/c mice infected and cultured at 26 °C in Schneider’s insect medium supplemented with 20% HIFCS, streptomycin at 100 μg/ml and penicillin at 100 U/ml. New cultures of promastigotes were obtained from infected Balb/C mice.
as §3

[7] = test system: intracellular amastigotes of L. infantum; test: Antiamastigote test, L. infantum in mouse peritoneal macrophages; type: cell-based, Leishmania infantum; conditions: for IC50: Leishmania infantum, Peritoneal macrophage, intracellular amastigotes in mouse peritoneal macrophages, infection index, Mean ± SEM, read-out: L. infantum Amastigote IC50; for IC50 / activity against L. infantum amastigotes (in words): 72 h; for activity against L. infantum amastigotes (in words): intracellular amastigotes; for L. infantum SI (Selective Index): CC50 in Macrophages/IC50 in intracellular amastigotes
Protocol: as §1, §2

[8] = Macrophage toxicity test (resazurin); type: cell-based, Swiss mice; conditions: mouse; peritoneal macrophages of Swiss mice, 72 h, resazurin, Mean ± SEM; read-out: Murine Macrophage CC50
Protocol: (§4) To evaluate the toxicity of pterocarpanquinones 2a-f, peritoneal macrophages of Swiss mice (2 × 10^6/mL) were incubated with pterocarpanquinones (1.25–100 μM) for 72 h at 37 °C/5% CO2. Viability was evaluated with resazurin assay as described for the antipromastigote test. The 50% cytotoxicity concentration (CC50) was determined by nonlinear regression analysis in the software GraphPad Prism 5.

[9] = test system: promastigotes of L. infantum; test: Measurement of reactive oxygen species (H2DCFDA); type: cell-based, Leishmania infantum; conditions: 1.25–5.0 μM; for ROS production, dependence on concentration: 4 h; for Early ROS production after 4 h of treatment: compared with control
Protocol: Intracellular ROS levels were measured in treated and untreated cells as described previously. Briefly, 1 × 10^7 promastigotes/mL of L. infantum were incubated in Schneider’s insect medium supplemented with 20% HIFCS at 26 °C with concentrations of pterocarpanquinones 2a-f ranging from 0 to 5 μM in the presence of 20 μM H2DCFDA (Molecular Probes, Eugene, OR, USA). The fluorescence was monitored at 1 h intervals for 4 h using 485 and 530 nm as excitation and emission wavelengths, respectively, using the spectrofluorometer Spectra Max Gemini XPS (Molecular Devices, Silicon Valley, CA, USA). Antimycin A 10 μM was used as positive control.

[10] = test system: peritoneal macrophages of Swiss mice; test: Macrophage toxicity test (resazurin); type: cell-based
Protocol: as §4

[11] = 1.25 μM, 4 h, negative = depolarization
[12] = 2.5 μM, 4 h, negative = depolarization

SMILES	IC50 [1]	Δѱm index of variation (IV) [2, 11]	Δѱm index of variation (IV) [2, 12]	L. amazonensis SI (Selective Index) [3]	IC50 [3]	L. braziliensis SI (Selective Index) [4]	IC50 [4]	IC50 [5]	IC50 [6]	IC50 [7]	CC50 at 72 h [8]	ROS production, dependence on concentration [9]	other results
O=C1C2=C(C(=O)c3ccccc31)[C@H]1CCc3ccccc3[C@H]1O2 (relative stereo) [LQB 187 (2a)]	1.05 ± 0.21 µM	−0.103 ± 0.16	−0.368 ± 0.03	54.7	0.9 ± 0.1 µM	5.0	9.85 ± 1.37 µM	23.1 ± 1.63 µM	1.2 ± 0.2 µM	> 25 µM	49.3 ± 1.1 µM	–	–
COc1ccc2c(c1)CC[C@@H]1C3=C(O[C@H]21)C(=O)c1ccccc1C3=O (relative stereo) [LQB 474 (2e)]	0.5 ± 0.07 µM	−0.582 ± 0.1	−0.701 ± 0.01	5.74	2.6 ± 0.8 µM	1.74	8.53 ± 1.12 µM	12.3 ± 0.45 µM	2.2 ± 0.3 µM	> 10 µM	14.9 ± 1.43 µM	only increased ROS production when the parasite was incubated with the highest concentration of 5 μM	effect on ΔΨm (in words) ([2]; 4 h): greater depolarization
COc1ccc2c(c1)[C@H]1OC3=C(C(=O)c4ccccc4C3=O)[C@H]1CC2 (relative stereo) [LQB 475 (2f)]	0.4 ± 0.06 µM	−0.668 ± 0.01	−0.707 ± 0.01	23.76	2.1 ± 0.4 µM	5.53	9.02 ± 1.64 µM	10.5 ± 1.01 µM	1.4 ± 0.7 µM	> 40 µM	–	–	effect on ΔΨm (in words) ([2]; 4 h): greater depolarization
N#CC(C#N)=NNc1ccc(OC(F)(F)F)cc1 [FCCP, Carbonyl cyanide-p-Trifluoromethoxyphenylhydrazone, reference compound]	–	–	–	–	–	–	–	–	–	–	–	–	Δѱm index of variation (IV) ([2]; 20 μM (positive control)): −0.727 ± 0.01
O=C1C2=C(C(=O)c3ccccc31)[C@H]1COc3cc4c(cc3[C@H]1O2)OCO4 [LQB 168 (2d)]	1.37 ± 0.04 µM	−0.369 ± 0.08	−0.194 ± 0.18	172.6	0.45 ± 0.06 µM	11.03	7.04 ± 2.29 µM	28.2 ± 1.61 µM	2 ± 0.4 µM	> 50 µM	77.7 ± 1.1 µM	–	activity against L. infantum amastigotes (in words) [7]: no significant activity; fold higher CC50 than LQB-118 (less cytotoxic) ([10]; peritoneal macrophages, CC50 77.7 μM vs 18.46 μM): 4.2 fold
O=C1C2=C(C(=O)c3ccccc31)[C@H]1COc3ccccc3[C@H]1O2 [LQB 182 (2b)]	1.08 ± 0.2 µM	−0.397 ± 0.07	−0.402 ± 0.04	19.8	0.85 ± 0.02 µM	2.15	7.84 ± 2.46 µM	11 ± 1.25 µM	1 ± 0.3 µM	3.6 ± 0.9 µM	16.9 ± 1.2 µM	increased ROS generation dependent on compound concentration	improvement of activity, 2b in comparison to 1 ([1]; promastigotes of L. amazonensis): about 1.6 times; improvement of activity, 2b in comparison to 1 ([3]; amastigotes of L. amazonensis): about 1.6 times; decrease in antileishmanial activity, 2b in comparison to 1 ([5]; promastigotes of L. braziliensis): 3.2 times; activity relative to deoxy derivative 2a ([5]; promastigotes of L. braziliensis, listed as 2b): approximately twice as active; also recorded: approximately two times more active; improvement of activity, 2b in comparison to 1 ([6]; promastigotes of L. infantum): ~4 times; Early ROS production after 4 h of treatment ([9]; listed as 2b): induction of increased ROS production; L. infantum SI (Selective Index) [7]: 4.69; activity against L. infantum amastigotes (in words) [7]: the only one active
O=C1C2=C(C(=O)c3ccccc31)[C@H]1COc3ccc(Cl)cc3[C@H]1O2 [LQB 236 (2c)]	1.15 ± 0.18 µM	−0.360 ± 0.16	−0.258 ± 0.17	73.16	0.6 ± 0.13 µM	5.26	8.34 ± 1.47 µM	17.9 ± 1.12 µM	1.8 ± 0.3 µM	> 25 µM	43.9 ± 0.6 µM	only increased ROS production when the parasite was incubated with the highest concentration of 5 μM	Early ROS production after 4 h of treatment ([9]; listed as 2c): induction of increased ROS production; increased cytotoxicity when compared to 2b ([10]; macrophages): 2.6 times
N=C(N)c1ccc(OCCCCCOc2ccc(C(=N)N)cc2)cc1 [Pentamidine, reference compound]	4.8 ± 0.09 µM	–	–	4.47	1.9 ± 0.1 µM	1.1	7.7 ± 2.4 µM	13 ± 0.04 µM	5.7 ± 0.12 µM	0.4 ± 0.2 µM	8.5 ± 1.25 µM	–	L. infantum SI (Selective Index) [7]: 21.25

Reference: PMC6263544, “Second-generation pterocarpanquinones: synthesis and antileishmanial activity” (The Journal of Venomous Animals and Toxins Including …, 2018)
